Assay results taken from ChEMBL document CHEMBL1649292, “In vivo investigations of selected diamidine compounds against Trypanosoma evansi using a mouse model” (2009).
Calls of active or inactive are those of the source. The rule behind the calls is not given here.

Legend:
Trypanosoma evansi [1] = assay: Antimicrobial activity against Trypanosoma evansi STIB 806K infected in NMRI mouse assessed as host survival days at 0.5 mg/kg, ip administered 3 to 6 days after infection for 4 consecutive days; type: functional; conditions: route intraperitoneal
Trypanosoma evansi [2] = assay: Antimicrobial activity against Trypanosoma evansi STIB 806K infected in NMRI mouse assessed as host survival days at 2 mg/kg, ip administered 3 to 6 days after infection for 4 consecutive days; type: functional; conditions: route intraperitoneal
Trypanosoma evansi [3] = assay: Antimicrobial activity against Trypanosoma evansi STIB 806K infected in NMRI mouse assessed as host survival days at 0.25 mg/kg, ip administered 3 to 6 days after infection for 4 consecutive days; type: functional; conditions: route intraperitoneal
Trypanosoma evansi [4] = assay: Antimicrobial activity against Trypanosoma evansi STIB 806K infected in NMRI mouse assessed as host survival days at 0.125 mg/kg, ip administered 3 to 6 days after infection for 4 consecutive days; type: functional; conditions: route intraperitoneal
Trypanosoma evansi [5] = assay: Antimicrobial activity against Trypanosoma evansi STIB 806K infected in NMRI mouse assessed as complete cure from microbial infection at 0.5 mg/kg, ip administered 3 to 6 days after infection for 4 consecutive days; type: functional, organism-based; design: dose 0.5 mg/kg
Trypanosoma evansi [6] = assay: Antimicrobial activity against Trypanosoma evansi STIB 806K infected in NMRI mouse assessed as complete cure from microbial infection at 2 mg/kg, ip administered 3 to 6 days after infection for 4 consecutive days; type: functional, organism-based; design: dose 2 mg/kg
Trypanosoma evansi [7] = assay: Antimicrobial activity against Trypanosoma evansi STIB 806K infected in NMRI mouse assessed as complete cure from microbial infection at 0.25 mg/kg, ip administered 3 to 6 days after infection for 4 consecutive days; type: functional, organism-based; design: dose 0.25 mg/kg
Trypanosoma evansi [8] = assay: Antimicrobial activity against Trypanosoma evansi STIB 806K infected in NMRI mouse assessed as host survival days at 0.2 mg/kg, ip administered 3 to 6 days after infection for 4 consecutive days; type: functional; conditions: route intraperitoneal
Trypanosoma evansi [9] = assay: Antimicrobial activity against Trypanosoma evansi STIB 806K infected in NMRI mouse assessed as complete cure from microbial infection at 0.2 mg/kg, ip administered 3 to 6 days after infection for 4 consecutive days; type: functional, organism-based; design: dose 0.2 mg/kg
Trypanosoma evansi [10] = assay: Antimicrobial activity against Trypanosoma evansi STIB 806K infected in NMRI mouse assessed as host survival days at 0.0625 mg/kg, ip administered 3 to 6 days after infection for 4 consecutive days; type: functional; conditions: route intraperitoneal
Trypanosoma evansi [11] = assay: Antimicrobial activity against Trypanosoma evansi STIB 806K infected in NMRI mouse assessed as complete cure from microbial infection at 0.20 mg/kg, ip administered 3 to 6 days after infection for 4 consecutive days; type: functional, organism-based; design: dose 0.2 mg/kg
Trypanosoma evansi [12] = assay: Antimicrobial activity against Trypanosoma evansi STIB 806K infected in NMRI mouse assessed as host survival days at 0.20 mg/kg, ip administered 3 to 6 days after infection for 4 consecutive days; type: functional; conditions: dose 0.2 mg/kg; route intraperitoneal
Trypanosoma evansi [13] = assay: Antimicrobial activity against Trypanosoma evansi STIB 806K infected in NMRI mouse assessed as host survival days at 1 mg/kg, ip administered 3 to 6 days after infection for 4 consecutive days; type: functional; conditions: route intraperitoneal
Trypanosoma evansi [14] = assay: Antimicrobial activity against Trypanosoma evansi STIB 806K infected in NMRI mouse assessed as complete cure from microbial infection at 1 mg/kg, ip administered 3 to 6 days after infection for 4 consecutive days; type: functional, organism-based; design: dose 1 mg/kg
Trypanosoma evansi [15] = assay: Antimicrobial activity against Trypanosoma evansi STIB 806K infected in NMRI mouse assessed as complete cure from microbial infection at 0.0625 mg/kg, ip administered 3 to 6 days after infection for 4 consecutive days; type: functional, organism-based; design: dose 0.0625 mg/kg
Trypanosoma evansi [16] = assay: Antimicrobial activity against Trypanosoma evansi STIB 806K infected in NMRI mouse assessed as host survival days at 0.03125 mg/kg, ip administered 3 to 6 days after infection for 4 consecutive days; type: functional; conditions: route intraperitoneal
Trypanosoma evansi [17] = assay: Antimicrobial activity against Trypanosoma evansi STIB 806K infected in NMRI mouse assessed as complete cure from microbial infection at 0.125 mg/kg, ip administered 3 to 6 days after infection for 4 consecutive days; type: functional, organism-based; design: dose 0.125 mg/kg

N=C(N)c1ccc(-c2ccc(-c3ccc(C(=N)N)cc3O)o2)cc1
Survival (Trypanosoma evansi [1]): 60 days | Survival (Trypanosoma evansi [2]): 60 days | Survival (Trypanosoma evansi [3]): 38 days | Survival (Trypanosoma evansi [4]): 32 days | Activity (Trypanosoma evansi [5]): Active | Activity (Trypanosoma evansi [6]): Active

N=C(N)c1ccc(-c2csc(-c3ccc(C(=N)N)cc3)n2)cc1
Survival (Trypanosoma evansi [2]): 53 days

N=C(N)c1ccc(-c2ccc(-c3ccc(C(=N)N)cn3)o2)cc1
Survival (Trypanosoma evansi [1]): 60 days | Activity (Trypanosoma evansi [7]): Active | Survival (Trypanosoma evansi [3]): 60 days | Survival (Trypanosoma evansi [4]): 50 days | Activity (Trypanosoma evansi [5]): Active

N=C(N)c1ccc(-c2ccc(-c3cn4cc(C(=N)N)ccc4n3)cc2)cc1
Survival (Trypanosoma evansi [2]): 35 days | Survival (Trypanosoma evansi [8]): 12 days | Activity (Trypanosoma evansi [9]): inactive

Cc1cc(C2=NCCN2)ccc1-c1cc2cc(C3=NCCN3)ccc2[nH]1
Survival (Trypanosoma evansi [1]): 7 days | Activity (Trypanosoma evansi [5]): inactive

CNC(=N)c1ccc(OCCCCCOc2ccc(C(=N)NC)cc2)cc1
Survival (Trypanosoma evansi [2]): 29 days | Activity (Trypanosoma evansi [6]): inactive

N=C(N)c1ccc(-c2ccc(-c3ccc(C(=N)N)cc3)o2)cc1 [FURAMIDINE]
Survival (Trypanosoma evansi [10]): 29 days | Activity (Trypanosoma evansi [11]): Active | Activity (Trypanosoma evansi [7]): Active | Survival (Trypanosoma evansi [3]): 60 days | Survival (Trypanosoma evansi [4]): 55 days | Survival (Trypanosoma evansi [12]): 60 days

COc1cc(-c2ccc(C(=N)N)cc2)c(OC)cc1-c1ccc(C(=N)N)cc1
Survival (Trypanosoma evansi [1]): 7 days | Activity (Trypanosoma evansi [5]): inactive

N=C(N)c1ccc(-c2ccc(-c3ccc(C(=N)N)nc3)o2)nc1
Survival (Trypanosoma evansi [1]): 60 days | Survival (Trypanosoma evansi [2]): 60 days | Survival (Trypanosoma evansi [3]): 46 days | Survival (Trypanosoma evansi [4]): 23 days | Activity (Trypanosoma evansi [5]): Active | Activity (Trypanosoma evansi [6]): Active

N=C(N)c1ccc(-c2ccc(-c3ccc(C(=N)N)o3)cn2)cc1
Survival (Trypanosoma evansi [2]): 28 days

N=C(N)c1ccc(-c2ccc(-c3ccc(C(=N)N)nc3)o2)cc1
Survival (Trypanosoma evansi [1]): 60 days | Survival (Trypanosoma evansi [2]): 60 days | Survival (Trypanosoma evansi [3]): 54 days | Survival (Trypanosoma evansi [4]): 46 days | Activity (Trypanosoma evansi [5]): Active | Activity (Trypanosoma evansi [6]): Active

CNC(=N)Nc1ccc(-c2ccc(-c3ccc(NC(=N)NC)cc3)cc2)cc1
Survival (Trypanosoma evansi [1]): 13 days | Activity (Trypanosoma evansi [5]): inactive

N=C(N)c1ccc(-c2cccc(-c3ccc(C(=N)N)cc3)n2)cc1
Survival (Trypanosoma evansi [1]): 16 days | Activity (Trypanosoma evansi [5]): inactive

N=C(N)c1ccc2nc(-c3ccc(-c4ccc(C(=N)N)c(F)c4)o3)[nH]c2c1
Survival (Trypanosoma evansi [1]): 27 days | Activity (Trypanosoma evansi [5]): inactive

Cc1ccc(C(=O)Nc2ccc(S(=O)(=O)O)c3cc(S(=O)(=O)O)cc(S(=O)(=O)O)c23)cc1NC(=O)c1cccc(NC(=O)Nc2cccc(C(=O)Nc3cc(C(=O)Nc4ccc(S(=O)(=O)O)c5cc(S(=O)(=O)O)cc(S(=O)(=O)O)c45)ccc3C)c2)c1 [SURAMIN]
Survival (Trypanosoma evansi [1]): 51 days | Survival (Trypanosoma evansi [13]): 60 days | Activity (Trypanosoma evansi [14]): Active | Activity (Trypanosoma evansi [7]): inactive | Survival (Trypanosoma evansi [3]): 11 days

N=C(N)c1ccc(-c2cc(-c3ccc(C(=N)N)cc3)on2)cc1
Survival (Trypanosoma evansi [1]): 29 days | Survival (Trypanosoma evansi [2]): 60 days | Activity (Trypanosoma evansi [6]): Active

COc1cc(C(=N)N)ccc1OCCCOc1ccc(C(=N)N)cc1OC
Survival (Trypanosoma evansi [2]): 29 days

N=C(N)c1cccc(-c2ccc(-c3nc4cc(C(=N)N)ccc4[nH]3)cc2)c1
Survival (Trypanosoma evansi [1]): 12 days | Activity (Trypanosoma evansi [5]): inactive

c1cc(-c2cc3cc(C4=NCCN4)ccc3[nH]2)ccc1C1=NCCN1
Survival (Trypanosoma evansi [2]): 39 days

N=C(N)c1ccc(-c2cccc(-c3nc4ccc(C(=N)N)cc4[nH]3)c2)nc1
Survival (Trypanosoma evansi [2]): 18 days | Activity (Trypanosoma evansi [6]): inactive

Cn1c(-c2ccc(C(=N)N)cc2)ccc1-c1ccc(C(=N)N)cc1
Survival (Trypanosoma evansi [2]): 49 days

N=C(N)c1ccc(-c2ccc(-c3nc4cc(C(=N)N)ccc4o3)o2)cc1
Survival (Trypanosoma evansi [2]): 23 days | Activity (Trypanosoma evansi [6]): inactive

N=C(N)c1ccc(-c2coc(-c3ccc(C(=N)N)cc3)c2)cc1
Survival (Trypanosoma evansi [1]): 57 days | Survival (Trypanosoma evansi [2]): 60 days | Survival (Trypanosoma evansi [3]): 41 days | Activity (Trypanosoma evansi [6]): Active

N=C(N)c1ccc(-c2ccc(-c3ccc(C(=N)N)cc3F)o2)c(F)c1
Survival (Trypanosoma evansi [1]): 43 days

NCCS[As](SCCN)c1ccc(Nc2nc(N)nc(N)n2)cc1
Activity (Trypanosoma evansi [15]): Active | Survival (Trypanosoma evansi [10]): 60 days | Survival (Trypanosoma evansi [16]): 37 days | Activity (Trypanosoma evansi [17]): Active | Survival (Trypanosoma evansi [4]): 60 days

Cc1cc(C(=N)N)cn2cc(-c3ccc(-c4ccc(C(=N)N)cc4)o3)nc12
Survival (Trypanosoma evansi [2]): 13 days | Activity (Trypanosoma evansi [6]): inactive

Cc1cc(=N)c2ccc(Nc3cc(C)[n+](C)c(N)n3)cc2n1C.O=S(=O)([O-])O [QUINAPYRAMINE SULFATE]
Survival (Trypanosoma evansi [1]): 57 days | Survival (Trypanosoma evansi [13]): 60 days | Activity (Trypanosoma evansi [14]): Active | Survival (Trypanosoma evansi [3]): 41 days

Cc1cc(C(=N)N)ccc1-c1cc2cc(C(=N)N)ccc2[nH]1
Survival (Trypanosoma evansi [1]): 60 days | Survival (Trypanosoma evansi [2]): 60 days | Survival (Trypanosoma evansi [3]): 51 days | Survival (Trypanosoma evansi [4]): 29 days | Activity (Trypanosoma evansi [5]): Active | Activity (Trypanosoma evansi [6]): Active

Cc1cc(C(=N)N)ccc1-c1ccc(-c2nc3ccc(C(=N)N)cc3[nH]2)o1
Survival (Trypanosoma evansi [1]): 16 days | Activity (Trypanosoma evansi [5]): inactive

COc1cc(C(=N)N)ccc1-c1ccnc(-c2ccc(C(=N)N)cc2)n1
Survival (Trypanosoma evansi [1]): 15 days | Activity (Trypanosoma evansi [5]): inactive

N=C(N)c1ccc(-c2ccc(-c3ccc4ccc(C(=N)N)cc4c3)o2)cc1
Survival (Trypanosoma evansi [1]): 15 days | Activity (Trypanosoma evansi [5]): inactive

Cn1c(-c2ccc(C(=N)N)nc2)ccc1-c1ccc(C(=N)N)nc1
Survival (Trypanosoma evansi [1]): 34 days

N=C(N)c1ccc(/N=N/Nc2ccc(C(=N)N)cc2)cc1 [DIMINAZENE]
Survival (Trypanosoma evansi [2]): 60 days | Survival (Trypanosoma evansi [13]): 44 days | Survival (Trypanosoma evansi [8]): 9 days | Activity (Trypanosoma evansi [9]): inactive | Activity (Trypanosoma evansi [6]): Active
